From patent US3998971A, “Novel N-vinyloxyethyl-α-methyl-β-phenethylamines for depressing appetite” (Abbott Laboratories, priority 1975, dated 1976)
“Also recorded” adds a separate entry of the source. Counter-ions that a name gives are not always drawn.

How the values were obtained:
Acute Toxicity in Rats = assay type: in vivo, rat; settings: rat, in vivo, po; P.O., rats; range in parentheses; read-out: Calculated LD50
Rats [1] = assay: Acute Toxicity in Rats; assay type: in vivo, rat; settings: for Mortality Ratio / toxicity relative to fenfluramine: rats; for toxicity compared with fenfluramine / toxicity relative to fenfluramine: HCl salts; for toxicity compared with fenfluramine: summary in words; for toxicity relative to fenfluramine: acute
Rats [2] = assay: Reduction of food consumption in rats (average daily consumption of food, ED50); assay type: in vivo, rat; settings: for % Change From Control Value in Average Daily Consumption of Food: one hour prior to feeding; for potency compared with fenfluramine: HCl salts, summary in words; for ED50: Rattus norvegicus, po, read-out: Calculated ED50 (dose necessary to reduce the intake of food by 50%); for Relative Potency: Summary of Table II, fenfluramine = 1
Protocol: Table II records the percent change in average daily consumption of food at various dosage levels upon administration of fenfluramine or the HCl salt of the compounds of formula B in which R is Cl or CF3 as well as the dose in milligrams per killograms necessary to reduce the intake of food by 50% (ED 50). […] In this study, drugs were administered one hour prior to feeding on the fifth day of regular food intake at doses of 5, 10 and 20 milligrams per killogram, with five rats being dosed at each level and fifteen rats serving as controls.
*ED50 : dose (mg/kg) necessary to reduce the intake of food by 50%.

[3] = test system: rat serum lipids and glucose; assay: Effect of pre-treatment on rat serum lipids and glucose induced by olive oil gavage; assay type: in vivo, rat (male Sprague Dawley); settings: for Serum Free Fatty Acids: 20 mg/kg i.p. 2 hours before olive oil (20 ml/kg gavage); for Serum Free Fatty Acids / Serum Concentration, Cholesterol / Serum Concentration, Glucose / Serum Concentration, Glycerol / Serum Concentration, Triglycerides: blood 3 hours after oil; for Serum Concentration, Cholesterol / Serum Concentration, Glucose / Serum Concentration, Glycerol / Serum Concentration, Triglycerides: 20 mg/kg i.p. 2 hours before olive oil; for inhibiting the increase in serum triglycerides induced by olive oil gavage: % of the oil treated group; for reduction of olive oil induced increase in serum cholesterol: HCl salts; for inhibiting the increase in serum triglycerides, compared with fenfluramine: olive oil gavage
From the text: The effect of pre-treatment with fenfluramine and the HCl salts of the compounds of formula B in which R is Cl or CF3 on rat serum lipids and glucose induced by olive oil gavage.
The present study was designed to compare the effects of fenfluramine, and the HCl salts of the compounds of formula B in which R=Cl and CF3 on serum glucose and lipid parameters in male rats after an olive oil meal.
Twenty-four male Sprague Dawley rats (200-250 g.) were divided into 8 groups as follows:
The animals were not fasted. Where indicated, the rats were pre-treated (intraperitoneally) with the appropriate drug for 2 hours prior to the administration of olive oil. Three hours after olive oil treatment, the animals were anesthetized with ether and blood samples obtained by cardiac puncture of the exposed heart. In each case, total treatment time was 5 hours.

[4] = Comparison with fenfluramine: stimulating properties; assay type: in vivo; settings: HCl salts, in words
[5] = Solubility of the salt in water; settings: HCl salt
Mouse = assay: Symtomatology Tests in the Mouse; assay type: in vivo; settings: for stimulant effects: low doses (10-50 mg/kg)
From the text: Symtomatology Tests in the Mouse

Rats [6] = assay: Sidman Avoidance Test in the Rat; assay type: in vivo, rat (male, Long Evans black-hooded); settings: for effect on performance / behavior: 8 mg/kg; for effect on performance / behavior / effect on performance in Sidman Avoidance test / effect on response rate / effect on shock rate: in words; for effect on performance in Sidman Avoidance test / effect on response rate / effect on shock rate: overall
Protocol: The compound fenfluramine and the HCl salt compound of formula B in which R is Cl were examined in the Sidman Avoidance test.
Fenfluramine was run as a standard compound for comparative purposes in the study of appetite-suppressing drugs. The effects of drug-induced behavior are evaluated using the technique of Sidman Avoidance (Sidman, M., J. Comp. Physiol. Psychol. 46:253-261, 1953).
Male, Long Evans black-hooded rats (Simonsen Labs) weighing approximately 500 grams are run individually in Lehigh Valley Electronics rodent test chambers. Sessions (day/night) are 7.5 hours and 14 hours in length, respectively. The paradigm consists of two distinct temporal intervals for neither of which is the rat given any exteroceptive cues. The amount of time that elapses between shocks designates the shock-shock interval, is of a predetermined fixed length (10 seconds), and programmed by a recycling timer. When the rat responds by pressing a lever, the shock-shock interval is terminated and the response-shock interval is started. This interval is also of a predetermined fixed length (30 seconds) and programmed by a recycling timer. Both timers never operate simultaneously. The response-shock interval begins anew each time the rat responds on the lever. If the interval should elapse without the rat responding, a Shock (0.5 seconds, 10 mA) is given via the grid floor and the response-shock interval ends and the shock-shock interval begins.
Drug effects are evaluated as a precentage deviation of the rat's behavior from his baseline rate (responses/minute and shocks/minute). These effects are analyzed in 15 minute segments and an overall percentage deviation (response index and shock index) is determined.
based on an 8 mg/kg oral dose.

diabetics = settings: cited from earlier work
[7] = test system: plasma free fatty acids and triglycerides; settings: cited from earlier work
[8] = 8 mg/kg oral, 7.5 hours session, 4 rats

SMILES: C=COCCNC(C)Cc1cccc(C(F)(F)F)c1 (stereo not drawn) [HCl Salt, R=CF3, N-(2-vinyloxyethyl)-α-methyl-β-(3-trifluoromethylphenyl) Phenethylamine Hydrochloride]
- LD50 (Acute Toxicity in Rats): 1010 mg/kg
- Mortality Ratio (Rats [1]; 0.5 gm/kg P.O.): 0/6
- Mortality Ratio (Rats [1]; 0.75 gm/kg P.O.): 1/6
- Mortality Ratio (Rats [1]; 0.85 gm/kg P.O.): 2/6
- Mortality Ratio (Rats [1]; 1.0 gm/kg P.O.): 4/6
- Mortality Ratio (Rats [1]; 2.00 gm/kg P.O.): 5/6
- toxicity compared with fenfluramine (Rats [1]): considerably less toxic than fenfluramine
- toxicity relative to fenfluramine (Rats [1]): approximately four times less toxic than fenfluramine
- % Change From Control Value in Average Daily Consumption of Food (Rats [2]; 5 mg/kg P.O., rats): -22.9%
- % Change From Control Value in Average Daily Consumption of Food (Rats [2]; 10 mg/kg P.O., rats): -28.3%
- % Change From Control Value in Average Daily Consumption of Food (Rats [2]; 20 mg/kg P.O., rats): -76.0%
- potency compared with fenfluramine (Rats [2]): considerably more potent
- ED50 (Rats [2]; P.O., rats): 17.4 mg/kg
- Relative Potency (Rats [2]): 1.2
- potency relative to fenfluramine (times) (Rats [2]; rats, P.O.): ~1.2 times
- Serum Free Fatty Acids [3]: 870±61 μEq/liter
- Serum Concentration, Cholesterol [3]: 122±10 mg%
- Serum Concentration, Glucose [3]: 159±7 mg%
- Serum Concentration, Glycerol [3]: 2.1±.40 mg%
- Serum Concentration, Triglycerides [3]: 62±13 mg%
- inhibiting the increase in serum triglycerides induced by olive oil gavage [3]: 50-55%
- reduction of olive oil induced increase in serum cholesterol [3]: 14-19%
- inhibiting the increase in serum triglycerides, compared with fenfluramine ([3]; in words): comparable to fenfluramine
- stimulating properties [4]: minimum stimulating properties
- solubility in water [5]: soluble in water

SMILES: CN[C@@H](C)Cc1ccccc1 [Methamphetamine, methamphetamine]
- stimulant effects (Mouse): stimulant effects

SMILES: C=COCCNC(C)Cc1ccc(Cl)cc1 (stereo not drawn) [HCl Salt, R=Cl, N-(2-vinyloxyethyl)-α-methyl-β-(4-cholorophenyl) ethylamine hydrochloride]
- LD50 (Acute Toxicity in Rats): 950 mg/kg
- Mortality Ratio (Rats [1]; 0.25 gm/kg P.O.): 0/6
- Mortality Ratio (Rats [1]; 0.5 gm/kg P.O.): 1/6
- Mortality Ratio (Rats [1]; 1.0 gm/kg P.O.): 3/6
- Mortality Ratio (Rats [1]; 1.25 gm/kg P.O.): 4/6
- Mortality Ratio (Rats [1]; 1.50 gm/kg P.O.): 5/6
- Mortality Ratio (Rats [1]; 2.00 gm/kg P.O.): 6/6
- toxicity compared with fenfluramine (Rats [1]): considerably less toxic than fenfluramine
- toxicity relative to fenfluramine (Rats [1]): approximately four times less toxic than fenfluramine
- % Change From Control Value in Average Daily Consumption of Food (Rats [2]; 5 mg/kg P.O., rats): -24.5%
- % Change From Control Value in Average Daily Consumption of Food (Rats [2]; 10 mg/kg P.O., rats): -53.5%
- % Change From Control Value in Average Daily Consumption of Food (Rats [2]; 20 mg/kg P.O., rats): -87.3%
- potency compared with fenfluramine (Rats [2]): considerably more potent
- ED50 (Rats [2]; P.O., rats): 7.7 mg/kg
- Relative Potency (Rats [2]): 2.5
- potency relative to fenfluramine (times) (Rats [2]; rats, P.O.): approximately 2.5 times
- Serum Free Fatty Acids [3]: 780±66 μEq/liter
- Serum Concentration, Cholesterol [3]: 116±8 mg%
- Serum Concentration, Glucose [3]: 159±1 mg%
- Serum Concentration, Glycerol [3]: 1.8±.30 mg%
- Serum Concentration, Triglycerides [3]: 62±7 mg%
- inhibiting the increase in serum triglycerides induced by olive oil gavage [3]: 50-55%
- reduction of olive oil induced increase in serum cholesterol [3]: 14-19%
- inhibiting the increase in serum triglycerides, compared with fenfluramine ([3]; in words): comparable to fenfluramine
- Shock Rate (percentage deviation from baseline rate) (Rats [6]; [8]): -55%
- effect on performance / behavior (Rats [6]): did not significantly affect behavior except for the parameter of shock rate which was reduced
- effect on performance in Sidman Avoidance test (Rats [6]): did not affect performance significantly overall
- effect on response rate (Rats [6]): response rate remaining stable
- effect on shock rate (Rats [6]): sharp decrease in shock rate
- stimulatory effect (Mouse; high doses (300-1000 mg/kg)): only a weak stimulatory effect
- stimulating properties [4]: minimum stimulating properties
- solubility in water [5]: soluble in water

SMILES: CCNC(C)Cc1cccc(C(F)(F)F)c1 (centres unmarked) [Fenfluramine, reference compound]
- LD50 (Acute Toxicity in Rats): 225 mg/kg
- Mortality Ratio (Rats [1]; 0.1 gm/kg P.O.): 0/6
- Mortality Ratio (Rats [1]; 0.2 gm/kg P.O.): 2/6
- Mortality Ratio (Rats [1]; 0.25 gm/kg P.O.): 4/6
- Mortality Ratio (Rats [1]; 0.3 gm/kg P.O.): 5/6
- % Change From Control Value in Average Daily Consumption of Food (Rats [2]; 5 mg/kg P.O., rats): -18.7%
- % Change From Control Value in Average Daily Consumption of Food (Rats [2]; 10 mg/kg P.O., rats): -39.3%
- % Change From Control Value in Average Daily Consumption of Food (Rats [2]; 20 mg/kg P.O., rats): -50.5%
- Calculated ED50 (dose necessary to reduce the intake of food by 50%) (Rats [2]; P.O., rats): 20.7 mg/kg
- ED50 (Rats [2]; P.O., rats): 20 mg/kg
- Serum Free Fatty Acids [3]: 919±61 μEq/liter
- Serum Concentration, Cholesterol [3]: 140±3 mg%
- Serum Concentration, Glucose [3]: 160±9 mg%
- Serum Concentration, Glycerol [3]: 1.6±.10 mg%
- Serum Concentration, Triglycerides [3]: 61±1 mg%
- effect on olive oil induced increase in serum cholesterol ([3]; in words): unaffected
- Response Rate (percentage deviation from baseline rate) (Rats [6]; [8]): +15%
- Shock Rate (percentage deviation from baseline rate) (Rats [6]; [8]): -50%
- effect on performance / behavior (Rats [6]): amphetamine-like effect on performance
- effect on performance in Sidman Avoidance test (Rats [6]): all doses to be effective in producing significant results; also recorded: results indicative of amphetamine-like compounds
- effect on response rate (Rats [6]): increase in response rate
- effect on shock rate (Rats [6]): decrease in shock rate
- stimulant effects (Mouse): stimulant effects
- sedative or stimulant action (diabetics; Nursing 74): acts as a sedative rather than a stimulant
- glucose tolerance in diabetics (diabetics; Turtle et al.): appears to improve glucose tolerance in diabetics
- undesirable side effects (diabetics; diabetics, Turtle et al.): without producing undersirable side effects
- post absorption glucose levels (diabetics; given before meals, maturity onset and insulin-requiring diabetics, Turtle et al.): consistently reduced post absorption glucose levels
- intestinal absorption of triglycerides ([7]; Bizzi et al.): inhibition of the intestinal absorption of triglycerides
- plasma triglycerides ([7]; fed, but not fasted, animals, Garattini et al.): decrease in plasma triglycerides in fed, but not fasted, animals
- concentration of plasma free fatty acids ([7]; rats, Bizzi et al.): rapid increase
- rise in plasma triglycerides after olive oil gavage ([7]; several hours after olive oil gavage, prior treatment of rats): inhibited
